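Method: 48-hour compound exposure of cells in 96-well plates, five concentrations, linear interpolation of endpoints. GI50 is the concentration that inhibits growth by half.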 Activity calls are given as the source filed them. Rule as the data show it: active = GI50 up to about 1.1 µM and inactive = higher.

These results are taken from ChEMBL document CHEMBL1201862, “PubChem BioAssay data set” (2004).

What all share (assay): NCI tumour cell line growth inhibition, 48 h
The test system of assay [1] is HOP-92.
Assay [2] has as its system NCI-H460.
Assay [3] concerns SF-268.
The test system of assay [4] is SK-MEL-5.
Assay [5] concerns CCRF-CEM.
Assay [6] deals with HCT-15.
Assay [7] concerns NCI-H23.
For assay [8], the system named is SK-OV-3.
Assay [9] relates to K562.
Assay [10] concerns OVCAR-5.
Assay [11] relates to SF-295.
Assay [12] concerns U-251.
Assay [13] concerns HCC 2998.
Assay [14] has as its system UACC-257.
In assay [15] the test system is RPMI-8226.
Assay [16] concerns SNB-75.

In the case of `Cc1ccc(C(=O)O/N=C2/CCC/C2=C\c2ccccc2)cc1`, the GI50 in assay [1] was > 100 µM (inactive); in assay [2], > 100 µM (inactive); in assay [3] it was 29.1 µM (inactive); in [4] it was > 100 µM (inactive); in assay [5], > 100 µM (inactive); in assay [6], over 100 µM. The GI50 in assay [7], in assay [8], in assay [9], in assay [10], in assay [11] and in assay [12] was > 100 µM (inactive) in each case. Besides, the GI50 in assay [13] was > 100 µM (inactive); in assay [14], > 100 µM (inactive); in [15], > 100 µM (inactive); in assay [16], 69.3 µM (inactive).

In the case of `COc1ccc(/C=C/C(=O)c2sc(Nc3ccc([N+](=O)[O-])cc3)nc2C)cc1`, the GI50 is 20.8 µM (inactive) in [1]; 44.6 µM (inactive) in [2]; 34.8 µM (inactive) in assay [3]; 18.2 µM (inactive) in assay [4]; 25.6 µM (inactive) in assay [5]; 34.4 µM in assay [6]. In addition, the GI50 in assay [7] was 26.5 µM (inactive); in assay [8], > 100 µM (inactive); in assay [9] it was 22.1 µM (inactive); in assay [10], > 100 µM (inactive); in [11], 23.3 µM (inactive); in [12], 65.2 µM (inactive). The results for the GI50 in [13], in assay [15] and in assay [16] were 27.5 µM (inactive), 19.3 µM (inactive) and 43.5 µM (inactive), respectively.

On to `C#CCN(N=O)C(=O)NCCCC(NC(C)=O)C(=O)NCc1ccccc1` (stereo unspecified), for which the GI50 in assay [1] is > 100 µM (inactive); in assay [2], 28.8 µM (inactive); in assay [3], > 100 µM (inactive); in assay [4] it was > 100 µM (inactive); in assay [5] it was 11.3 µM (inactive); in assay [6] it was over 100 µM. Further, the GI50 in [7] is > 100 µM (inactive); in assay [8] it was > 100 µM (inactive); in [9], 43.3 µM (inactive); in assay [10], > 100 µM (inactive); in assay [11] it was > 100 µM (inactive); in [12], > 100 µM (inactive). Also, the GI50 in [13] is > 100 µM (inactive); in [14], > 100 µM (inactive); in [15], 15.9 µM (inactive); in [16] it was 96.8 µM (inactive).

Take `CCCCCCCC(=O)OC(CBr)COC(=O)C(C)(C)C` (stereo unspecified): the GI50 is > 95.5 µM (inactive) in assay [1]; > 100 µM (inactive) in assay [2]; > 100 µM (inactive) in assay [3]; > 100 µM (inactive) in assay [4]; 33 µM (inactive) in [5]; over 100 µM in assay [6]. Besides, the GI50 in [7] was > 100 µM (inactive); in assay [8], > 100 µM (inactive); in assay [9], 32.5 µM (inactive); in assay [10], > 100 µM (inactive); in [11] it was > 100 µM (inactive); in assay [12], > 100 µM (inactive). The GI50 was > 100 µM (inactive) in assay [13], > 100 µM (inactive) in assay [14], 21.6 µM (inactive) in assay [15] and 12.1 µM (inactive) in assay [16].

Take `CC(C)(C)OP(=O)(OC(C)(C)C)C(O)c1ccc(/C=C(\C#N)C(N)=O)cc1` (stereo unspecified): the GI50 in assay [1] is > 100 µM (inactive); in assay [2], > 100 µM (inactive); in assay [3], > 100 µM (inactive); in [5] it was > 100 µM (inactive); in assay [6], over 100 µM; in assay [7] it was > 100 µM (inactive). Further, the GI50 in assay [8], in assay [9], in assay [10], in assay [11], in [12] and in assay [13] was > 100 µM (inactive) throughout. Moreover, the GI50 in assay [14], in assay [15] and in assay [16] was > 100 µM (inactive) each time.

As for `COc1ccc(N2C(=O)C3c4[nH]c5ccccc5c4C4CCCCCCCCCCC4C3C2=O)cc1` (stereo unspecified), the GI50 was 19 µM (inactive) in assay [1]; 4.92 µM (inactive) in assay [2]; 5.16 µM (inactive) in assay [3]; 21.7 µM (inactive) in [4]; 9.27 µM (inactive) in [5]; 5.52 µM in assay [6]. Besides, the GI50 in [7] was 9.38 µM (inactive); in [8], 28.8 µM (inactive); in assay [9], 19 µM (inactive); in assay [10], > 37.1 µM (inactive); in [11], 10.7 µM (inactive); in assay [12], 7.62 µM (inactive). Moreover, the GI50 in assay [13] is > 100 µM (inactive); in assay [14], 31.6 µM (inactive); in assay [15], 18.7 µM (inactive); in [16], 12.7 µM (inactive).

Regarding `CCOC(=O)c1[nH]c(COC(C)=O)c2c1CCCCCCCCCC2`, the GI50 in assay [1] was > 100 µM (inactive); in assay [2], > 100 µM (inactive); in assay [3] it was > 100 µM (inactive); in assay [4], > 100 µM (inactive); in assay [5], > 100 µM (inactive); in assay [6], over 100 µM. The GI50 in assay [7], in [8], in assay [9], in assay [10], in [11] and in assay [12] was > 100 µM (inactive) each time. Also, the GI50 in [13], in assay [14], in assay [15] and in assay [16] was > 100 µM (inactive) in each case.

As for `CN(C)c1ccc(/C=c2\sc3nnc(-c4cccnc4)n3c2=O)cc1`, the GI50 in [1] is > 100 µM (inactive); in [2], > 100 µM (inactive); in assay [3], > 100 µM (inactive); in [4], > 100 µM (inactive); in assay [5] it was > 100 µM (inactive); in [6] it was over 100 µM. The GI50 in [7], in assay [8], in assay [9], in assay [10], in [11] and in assay [12] was > 100 µM (inactive) throughout. Moreover, the GI50 in [13], in assay [14], in assay [15] and in assay [16] was > 100 µM (inactive) in each case.

For `CN1S(=O)(=O)N(C)P12(N=P(CP(=NP13(N(C)S(=O)(=O)N1C)N(C)S(=O)(=O)N3C)(c1ccccc1)c1ccccc1)(c1ccccc1)c1ccccc1)N(C)S(=O)(=O)N2C`, the GI50 in assay [1] is > 100 µM (inactive); in assay [2] it was > 100 µM (inactive); in assay [3], > 100 µM (inactive); in [4], > 100 µM (inactive); in assay [5], > 100 µM (inactive); in assay [6], over 100 µM. In addition, the GI50 in [7], in assay [8], in assay [9], in assay [10], in [12] and in assay [13] was > 100 µM (inactive) throughout. The GI50 in assay [14], in assay [15] and in assay [16] was > 100 µM (inactive) each time.
